From paper PMC9457593, “Design, Synthesis, and Evaluation of New Mesenchymal–Epithelial Transition Factor (c-Met) Kinase Inhibitors with Dual Chiral Centers” (Molecules, 2022)
Values joined by “and” are separate entries in the source; they are usually repeats but may differ in a detail not shown here. Identical values can stand only once. Like-named read-outs stand apart in the source and are kept apart here. Values belong to the molecule of their own block, whether it stands above or below them.

What was measured:
MHCC97H cells [1] = system: MHCC97H cells; set-up: method as in PMID 29393886; conditions: compounds bearing a single chiral center, from our previous work; read-out: MHCC97H Cell IC50; cited from earlier work
MHCC97H cells [2] = experiment: MTT antiproliferative assay; assay type: cell-based, human
Text: On the basis of our former study, compounds 12a-b were designed and first screened for their antiproliferative activity against the c-Met-driven human hepatocarcinoma cells (MHCC97H), using a standard MTT assay. Tepotinib was used as a positive control.

c-Met kinase = molecular target: T1, c-Met kinase (Homo sapiens, UniProt P08581); experiment: c-Met kinase inhibition assay (Mobility Shifting Assay); assay type: biochemical; conditions: mean ± SD of three independent experiments
T1 construct: purchased Carna Bioscience 08-151
T1 sequence (P08581 956-1390 limits assumed): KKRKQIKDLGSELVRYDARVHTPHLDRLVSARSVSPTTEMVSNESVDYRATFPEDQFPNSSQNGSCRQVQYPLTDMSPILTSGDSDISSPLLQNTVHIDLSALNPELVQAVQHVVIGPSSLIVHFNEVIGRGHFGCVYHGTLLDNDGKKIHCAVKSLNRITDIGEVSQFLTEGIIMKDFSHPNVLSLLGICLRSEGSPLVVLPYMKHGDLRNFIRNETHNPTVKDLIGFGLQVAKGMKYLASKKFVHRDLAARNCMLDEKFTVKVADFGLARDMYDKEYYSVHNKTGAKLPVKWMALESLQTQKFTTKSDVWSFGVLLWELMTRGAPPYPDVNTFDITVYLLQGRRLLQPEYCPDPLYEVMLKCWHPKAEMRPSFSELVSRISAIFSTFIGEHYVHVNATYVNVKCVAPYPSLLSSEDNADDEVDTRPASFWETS
Procedure: The kinase inhibition assay was carried out according to the principle of MSA (Mobility Shifting Assay) detection. […] Using triple dilution method, 10 gradient concentration groups were received. Varying concentrations of compounds were transported in 384-well plates, and 100% DMSO was set as negative control. After adding kinase buffer, the 384-well plates were centrifuged and vortexed, followed by 10 min of incubation. […] Finally, adding stop solution ended kinase reaction, and the conversion% was detected by a microplate reader (Caliper EZ Reader II, Perkin Elmer, Waltham, Massachusetts, […]). The statistics were analyzed by GraphPad Prism 8, using log (inhibitor) vs. response–variable slope to fit the dose–effect curve.

MHCC97H cells [3] = experiment: Cell cycle analysis (PI, flow cytometry); assay type: cell-based, human; conditions: 10 nM, 48 h
Procedure: MHCC97H cells were incubated with varying concentrations of compound (R, S)-12a or 1‰ DMSO for 48 h. The cells were collected by centrifugation, washed with PBS, and fixed in 70% ice-cold ethanol at 4 °C for 12 h. After the removal of ethanol, each sample was re-suspended in 500 μL of staining buffer containing 50 μL of RNase A and 450 μL of propidium iodide (KGA511, KeyGEN, BioTECH, Nanjing, Jiangsu, China) and incubated at room temperature, avoiding light exposure for 30 min. The DNA content of the cells was measured using a CytoFLXE flow cytometer (BECKMAN COLTER, Brea, CA, USA).

MHCC97H cells [4] = experiment: Annexin V-FITC/PI apoptosis analysis (flow cytometry); assay type: cell-based, human; conditions: 48 h
Procedure: MHCC97H cells were incubated with varying concentrations of compound (R, S)-12a or diluent (1‰ DMSO, as a negative control) for 48 h. The cells were harvested and washed with PBS twice. Then, 500 μL of binding buffer suspended cells were added. The cells were stained with 5 μL of Annexin V-FITC and 10 μL of PI (KGA105, KeyGEN, BioTECH, Nanjing, Jiangsu, China). Then, the cells were incubated at room temperature for 15 min without light exposure. Apoptosis was analyzed using a CytoFLXE flow cytometer (BECKMAN COLTER, Brea, CA, USA).

MHCC97H cells [5] = experiment: Wound healing (cell scratch) assay; assay type: cell-based, human; conditions: 1, 2, and 3 nM; 0, 6, 12, and 24 h; vs vehicle control
Procedure: MHCC97H cells were seeded in a 6-well plate and cultured for 24 h; subsequently, the confluent monolayer cells were scratched with a 10 μL pipette tip. After that, the wound was washed with PBS thrice to remove the non-adherent cell debris. In addition, each petri dish had media containing (R, S)-12a in gradient concentrations (1, 2, and 3 nM) added. At 0, 6, 12, and 24 h, changes of cell scratch in area were photographed by phase contrast microscope and finally measured and analyzed by Image J.

MHCC-97H tumor cells = experiment: Tumor cell morphology; assay type: cell-based, human; conditions: 10 and 50 nM
Procedure: Co-incubation with compound (R, S)-12a (1, 10, and 50 nM) led to a significant reduction in […] cell viability. Red arrowheads indicated distinct morphological changes, such as intracytoplasmic particles increasing, the cell shape change, and loss of adherent property. […] Aggregation, lysis, and cell debris also occurred.

c-Met = experiment: Immunofluorescence staining and Western blotting of c-Met and p-c-Met in MHCC97H cells; assay type: cell-based, human
Procedure: (§1) MHCC97H cells were seeded into confocal dishes and then treated with vehicle control (1‰ DMSO) and compound (R, S)-12a (2.5 nM). Cells were washed thrice with PBS, fixed with 4% paraformaldehyde for 15 min, and punched with 0.2% triton X100 and then blocked with 500 μL of blocking buffer at room temperature for 1 h. Cells were incubated with a primary monoclonal antibody (c-Met, p-c-Met, AKT, and p-AKT) at 4 °C for 12 h and then washed with PBS thrice, followed by incubation with the fluorescence secondary antibody (Alexa Fluor 488-labeled Goat Anti-Mouse IgG (H + L)-A0428) and labeling of nuclei by Hoechst33342 (MA0126, Meilunbio, Dalian, Liaoning, China). The cells were finally visualized by a confocal microscope (Carl Zessi Microscopy LSM 880, Oberkochen, Germany). The average fluorescence intensity of FITC channel was analyzed by Image J, and the illustration was drafted by GraphPad Prism8.
(§2) MHCC97H cells were then homogenized with lysis buffer. The protein concentrations were detected using a BCA Protein Assay Kit (Pierce BCA Protein Assay Kit 23227, Thermo, Waltham, MA, USA), and their extracts were reconstituted within loading buffer (Beyotime, Shanghai, China) and inactivated for 5 min at 100 °C. Subsequently, proteins (20 μg) were fractionated by 10% SDS-PAGE and transferred to PVDF membranes. Then, PVDF membranes were blocked in 10% skimmed milk and incubated with the appropriate dilution of primary antibodies, including c-Met (Abcam, Cambridge, UK), p-c-Met (Abcam), AKT (Cell Signaling Technology), p-AKT (Cell Signaling Technology), and GAPDH (Cell Signaling Technology, […], MA, USA). The above primary antibodies were then reacted with HRP-conjugated secondary antibody, and immunoreactive bands were visualized by an ECL Detection Reagent (36208ES60, Yeasen, Shanghai, China) and were estimated through densitometry with a chemiluminescence imaging system (Tanon, Shanghai, China). Intensities of the blots were quantified with Image J and analyzed by GraphPad Prism 8.

MHCC97H cells [6] = experiment: Hoechst 33342 staining for apoptosis morphology; assay type: cell-based, human; conditions: 1, 5, and 10 nM, 48 h, vs vehicle control
Text: Tumor cell apoptosis is an important stage in the effective treatment of cancer. To evaluate the capacity of compound (R, S)-12a to induce apoptosis in human cancer cell lines, we used Hoechst 33342 staining to investigate the effect of compound (R, S)-12a on MHCC97H cells. Hoechst 33342 staining was used to examine apoptosis through morphological observation.

AKT = experiment: Immunofluorescence staining and Western blotting of AKT and p-AKT in MHCC97H cells; assay type: cell-based, human
Procedure: as §1, §2

[7] = system: LO2 (human normal liver cells); experiment: Toxicity towards normal cells (LO2); conditions: for IC50: Homo sapiens, read-out: IC50 on LO2
[8] = system: HaCat (human immortalized keratinocytes); experiment: Toxicity towards normal cells (HaCat); conditions: for IC50: Homo sapiens, HaCaT, read-out: IC50 on HaCat
[9] = MTT, 48 h, mean ± SD of three independent experiments, read-out: MHCC97H Cell IC50
[10] = immunofluorescence, 2.5 nM, 48 h

Molecule: CC(c1cccc(-c2ncc(OCC3CCN(C)CC3)cn2)c1)n1nc(-c2cccc(C#N)c2)ccc1=O (racemic) [(±)-5b]
IC50 (MHCC97H cells [1]): 35.3 ± 11 nM

Molecule: C[C@H](c1cccc(-c2ncc(OCC3CCN(C)CC3)cn2)c1)n1nc(-c2cccc(C#N)c2)ccc1=O [(R)-5b]
IC50 (MHCC97H cells [1]): 3.7 ± 1 nM

IC50 (c-Met kinase): 28.7 ± 5 nM
Molecule: CC(Oc1cnc(-c2cccc(C(C)n3nc(-c4cccc(C#N)c4)ccc3=O)c2)nc1)C1CCN(C)CC1 [(R, R)-12a]
IC50 (MHCC97H cells [2]; [9]): 30 ± 8 nM

IC50 (c-Met kinase): 1.56 ± 1 nM
Molecule: CC(Oc1cnc(-c2cccc(C(C)n3nc(-c4cccc(C#N)c4)ccc3=O)c2)nc1)C1CCN(C)CC1 [(R, S)-12a]
proportion of cells in the G1 phase (MHCC97H cells [3]): 70.99%
proportion of cells in the G2/M phases (MHCC97H cells [3]): 12.44%
proportions of early and late apoptosis cells (MHCC97H cells [4]; 1 nM): 8.9%
proportions of early and late apoptosis cells (MHCC97H cells [4]; 5 nM): 33.3%
wound closure (MHCC97H cells [5]): significantly suppressed wound closure
tumor cell morphology (MHCC-97H tumor cells): the cells shrank and floated and no longer adhered to the wall
phosphorylation level of c-Met (c-Met; Western blot, dose-dependent): decrease
fluorescence intensity of c-Met (total c-Met protein) (c-Met; [10]): did not change significantly
fluorescence intensity of p-c-Met (c-Met; [10]): decreased significantly
nuclear morphology by Hoechst 33342 staining (MHCC97H cells [6]): obvious nucleolar pyknosis, DNA fragmentation, and chromatin condensation
phosphorylation level of AKT protein (AKT; Western blot, dose-dependent): decrease
fluorescence intensity of AKT (total AKT protein) (AKT; [10]): did not change significantly
fluorescence intensity of p-AKT (AKT; [10]): decreased significantly
Selectivity Index (LO2 vs MHCC-97H) [7]: 5750.0
IC50 [7]: 11500 ± 1530 nM
IC50 (MHCC97H cells [2]; Homo sapiens, MHCC97H, Table 2, read-out: IC50 on MHCC-97H): 2 ± 2 nM
IC50 (MHCC97H cells [2]; [9]): 2.1 nM
Selectivity Index (HaCat vs MHCC-97H) [8]: 953.5
IC50 [8]: 1910 ± 250 nM

Molecule: C[C@@H](c1cccc(-c2ncc(OCC3CCN(C)CC3)cn2)c1)n1nc(-c2cccc(C#N)c2)ccc1=O [(S)-5b]
IC50 (MHCC97H cells [1]): 118 ± 56 nM

IC50 (c-Met kinase): 195 ± 73.2 nM
Molecule: CC(Oc1cnc(-c2cccc(C(C)n3nc(-c4cccc(C#N)c4)ccc3=O)c2)nc1)C1CCN(C)CC1 [(S, R)-12a]
IC50 (MHCC97H cells [2]; [9]): 205 nM and 210 nM

IC50 (c-Met kinase): 35.8 ± 6.8 nM
Molecule: CC(Oc1cnc(-c2cccc(C(C)n3nc(-c4cccc(C#N)c4)ccc3=O)c2)nc1)C1CCN(C)CC1 [(S, S)-12a]
IC50 (MHCC97H cells [2]; [9]): 48.3 nM and 48 nM

Molecule: CN1CCC(COc2cnc(-c3cccc(Cn4nc(-c5cccc(C#N)c5)ccc4=O)c3)nc2)CC1 [Tepotinib, tepotinib, reference compound]
IC50 [7]: 8730 ± 841 nM
IC50 (MHCC97H cells [2]; Homo sapiens, MHCC97H, 48 h, read-out: MHCC97H Cell IC50): 13 ± 2 nM
IC50 (MHCC97H cells [2]; Homo sapiens, MHCC97H, read-out: IC50 on MHCC-97H): 13 ± 2 nM
IC50 [8]: 1950 ± 349 nM

Molecule: (R,R)-3-(1-(1-(3-(5-(1-((1-Methyl-1,2,3,6-tetrahydropyridin-4-yl)oxy)ethyl)pyrimidin-2-yl)phenyl)ethyl)-6-oxo-1,6-dihydropyridazin-3-yl)benzonitrile [(R, R)-12b]
IC50 (MHCC97H cells [2]; [9]): 130 ± 38 nM

Molecule: (R,S)-3-(1-(1-(3-(5-(1-((1-Methyl-1,2,3,6-tetrahydropyridin-4-yl)oxy)ethyl)pyrimidin-2-yl)phenyl)ethyl)-6-oxo-1,6-dihydropyridazin-3-yl)benzonitrile [(R, S)-12b]
IC50 (MHCC97H cells [2]; [9]): 9 ± 5 nM

Molecule: (S,R)-3-(1-(1-(3-(5-(1-((1-Methyl-1,2,3,6-tetrahydropyridin-4-yl)oxy)ethyl)pyrimidin-2-yl)phenyl)ethyl)-6-oxo-1,6-dihydropyridazin-3-yl)benzonitrile [(S, R)-12b]
IC50 (MHCC97H cells [2]; [9]): 616 ± 78.2 nM

Molecule: (S,S)-3-(1-(1-(3-(5-(1-((1-Methyl-1,2,3,6-tetrahydropyridin-4-yl)oxy)ethyl)pyrimidin-2-yl)phenyl)ethyl)-6-oxo-1,6-dihydropyridazin-3-yl)benzonitrile [(S, S)-12b]
IC50 (MHCC97H cells [2]; [9]): 136 ± 52 nM
